Test results reported in patent US12336981B2, “Compounds and compositions for the inhibition of NAMPT” (Valo Health, Inc., priority 2010, dated 2025).
Like-named read-outs stand apart in the source and are kept apart here.

Tests used:
NAMPT = molecular target: T1, NAMPT (Homo sapiens, UniProt P43490); assay: Biochemical inhibition assay: NAMPT enzymatic reaction, NMN quantified by mass spectrometry; conditions: read-out: Biochem IC50
T1 construct: His tag; host or cells: E. coli
Procedure, shortened: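 Inhibition of E. coli-expressed His-tagged human NAMPT, measured as NMN formation by mass spectrometry after a 30 min room-temperature reaction containing 1 μM NAM, 100 μM PRPP and 2.5 mM ATP.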

A2780 cells = assay: In-vitro cell proliferation assay (SRB), A2780 cells; format: cell-based; conditions: Homo sapiens, A2780, 72 h, A2780 cells, 72 hours, read-out: A2780 IC50
Procedure, shortened: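 Cells were plated overnight at 37° C., 5% CO2, then exposed to serially diluted compounds (0.1% DMSO final) for 72 hours. Viable cells were measured by sulforhodamine B staining after TCA fixation, read at 570 nm; media-only background was subtracted before % inhibition was calculated.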

T1 sequence (P43490 whole entry): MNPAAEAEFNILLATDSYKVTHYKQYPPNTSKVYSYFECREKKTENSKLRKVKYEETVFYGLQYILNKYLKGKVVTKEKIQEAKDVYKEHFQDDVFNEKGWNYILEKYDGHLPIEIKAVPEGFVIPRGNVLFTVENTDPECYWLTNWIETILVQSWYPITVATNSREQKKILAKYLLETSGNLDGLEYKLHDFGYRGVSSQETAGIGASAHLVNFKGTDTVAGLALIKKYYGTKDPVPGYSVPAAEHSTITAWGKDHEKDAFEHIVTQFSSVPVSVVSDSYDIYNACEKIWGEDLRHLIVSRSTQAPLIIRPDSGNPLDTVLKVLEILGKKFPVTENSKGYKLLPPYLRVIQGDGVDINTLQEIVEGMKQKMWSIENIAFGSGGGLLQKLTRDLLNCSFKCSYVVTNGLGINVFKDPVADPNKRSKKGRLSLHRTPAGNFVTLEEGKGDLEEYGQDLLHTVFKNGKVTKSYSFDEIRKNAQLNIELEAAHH

Compound	IC50 (NAMPT; NAMPT enzymatic reaction) [nM]	IC50 (A2780 cells; SRB assay) [nM]	IC50 (NAMPT; NAMPT enzymatic assay) [nM]	IC50 (A2780 cells; SRB) [nM]
O=C(NCc1ccc(S(=O)(=O)c2ccccc2)cc1)c1noc(-c2cccnc2)n1 [N-{[4-(benzenesulfonyl)phenyl]methyl}-5-(pyridin-3-yl)-1,2,4-oxadiazole-3-carboxamide]	312	> 30000	–	–
O=C(NCc1ccc(S(=O)(=O)c2ccccc2)cc1)c1cc(-c2cccnc2)[nH]n1 [N-{[4-(benzenesulfonyl)phenyl]methyl}-5-(pyridin-3-yl)-1H-pyrazole-3-carboxamide]	23	11800	–	–
O=C(NCc1ccc(S(=O)(=O)c2ccccc2)cc1)N1CCc2ncncc2C1 [N-{[4-(benzenesulfonyl)phenyl]methyl}-5H,6H,7H,8H-pyrido[4,3-d]pyrimidine-6-carboxamide]	> 2000	> 2000	–	–
O=C(NCc1ccc(S(=O)(=O)c2ccccc2)cc1)c1ccc2nncn2c1 [N-{[4-(benzenesulfonyl)phenyl]methyl}-[1,2,4]triazolo[4,3-a]pyridine-6-carboxamide]	301	> 10000	–	–
O=C(NCc1ccc(S(=O)(=O)c2ccccc2)cc1)c1nc2ccncc2s1 [N-{[4-(benzenesulfonyl)phenyl]methyl}-[1,3]thiazolo[5,4-c]pyridine-2-carboxamide]	–	–	220	> 10000
O=C(NCc1ccc(S(=O)(=O)c2ccccc2)cc1)c1cn2ccncc2n1 [N-{[4-(benzenesulfonyl)phenyl]methyl}imidazo[1,2-a]pyrazine-2-carboxamide]	1490	> 30000	–	–
O=C(NCc1ccc(S(=O)(=O)c2ccccc2)cc1)c1cnc2nccn2c1 [N-{[4-(benzenesulfonyl)phenyl]methyl}imidazo[1,2-a]pyrimidine-6-carboxamide]	–	–	2	57
O=C(NCc1ccc(S(=O)(=O)c2ccccc2)cc1)c1ccc2cnccc2c1 [N-{[4-(benzenesulfonyl)phenyl]methyl}isoquinoline-6-carboxamide]	16100	21300	–	–
O=C(NCc1ccc(S(=O)(=O)c2ccccc2)cc1)c1ccc2ccncc2c1 [N-{[4-(benzenesulfonyl)phenyl]methyl}isoquinoline-7-carboxamide]	219	24000	–	–
O=C(NCc1ccc(S(=O)(=O)c2ccccc2)cc1)c1ccc2ncncc2c1 [N-{[4-(benzenesulfonyl)phenyl]methyl}quinazoline-6-carboxamide]	16100	21300	–	–
O=C(NCc1ccc(S(=O)(=O)c2ccccc2)cc1)c1ccc2ncccc2c1 [N-{[4-(benzenesulfonyl)phenyl]methyl}quinoline-6-carboxamide]	–	–	108	> 10000
O=C(NCc1ccc(S(=O)(=O)c2ccccc2)cc1)c1cc2nccnc2s1 [N-{[4-(benzenesulfonyl)phenyl]methyl}thieno[2,3-b]pyrazine-6-carboxamide]	52	> 30000	–	–
O=C(NCc1ccc(S(=O)(=O)C2CCCCC2)cc1)c1cc2cnccc2[nH]1 [N-{[4-(cyclohexanesulfonyl)phenyl]methyl}-1H-pyrrolo[3,2-c]pyridine-2-carboxamide]	–	–	5	17.6
Cc1nc(C)c(S(=O)(=O)c2ccc(CNC(=O)c3cnc4[nH]ncc4c3)cc2)s1 [N-{[4-(dimethyl-1,3-thiazole-5-sulfonyl)phenyl]methyl}-1H-pyrazolo[3,4-b]pyridine-5-carboxamide]	–	–	38.6	16.4
Cc1nc(C)c(S(=O)(=O)c2ccc(CNC(=O)c3cc4ccncc4o3)cc2)s1 [N-{[4-(dimethyl-1,3-thiazole-5-sulfonyl)phenyl]methyl}furo[2,3-c]pyridine-2-carboxamide]	–	–	8.3	10.3
Cc1nc(C)c(S(=O)(=O)c2ccc(CNC(=O)c3ccc4nccn4c3)cc2)s1 [N-{[4-(dimethyl-1,3-thiazole-5-sulfonyl)phenyl]methyl}imidazo[1,2-a]pyridine-6-carboxamide]	–	–	9	3.7
Cc1nc(C)c(S(=O)(=O)c2ccc(CNC(=O)c3cnc4nccn4c3)cc2)s1 [N-{[4-(dimethyl-1,3-thiazole-5-sulfonyl)phenyl]methyl}imidazo[1,2-a]pyrimidine-6-carboxamide]	–	–	3.7	49.5
Cc1nc(C)c(S(=O)(=O)c2ccc(CNC(=O)c3cc4ccncc4s3)cc2)s1 [N-{[4-(dimethyl-1,3-thiazole-5-sulfonyl)phenyl]methyl}thieno[2,3-c]pyridine-2-carboxamide]	–	–	1.3	3
O=C(NCc1ccc(S(=O)(=O)c2ccco2)cc1)c1ccc2nccn2c1 [N-{[4-(furan-2-sulfonyl)phenyl]methyl}imidazo[1,2-a]pyridine-6-carboxamide]	–	–	76.2	100 to 1000

Compound	IC50 (NAMPT; NAMPT enzymatic reaction) [nM]	IC50 (A2780 cells; SRB assay) [nM]	IC50 (NAMPT; NAMPT enzymatic assay) [nM]	IC50 (A2780 cells; SRB) [nM]
O=C(NCc1ccc(S(=O)(=O)c2cncc3ccccc23)cc1)c1cnc2[nH]ncc2c1 [N-{[4-(isoquinoline-4-sulfonyl)phenyl]methyl}-1H-pyrazolo[3,4-b]pyridine-5-carboxamide]	–	–	3.7	2.5
O=C(NCc1ccc(S(=O)(=O)c2cncc3ccccc23)cc1)c1cc2cnccc2[nH]1 [N-{[4-(isoquinoline-4-sulfonyl)phenyl]methyl}-1H-pyrrolo[3,2-c]pyridine-2-carboxamide]	–	–	10.9	1.6
O=C(NCc1ccc(S(=O)(=O)c2cncc3ccccc23)cc1)c1cc2ccncc2o1 [N-{[4-(isoquinoline-4-sulfonyl)phenyl]methyl}furo[2,3-c]pyridine-2-carboxamide]	–	–	19	3
O=C(NCc1ccc(S(=O)(=O)c2cncc3ccccc23)cc1)c1ccc2nccn2c1 [N-{[4-(isoquinoline-4-sulfonyl)phenyl]methyl}imidazo[1,2-a]pyridine-6-carboxamide]	–	–	22.4	4.1
O=C(NCc1ccc(S(=O)(=O)c2cncc3ccccc23)cc1)c1cc2ccncc2s1 [N-{[4-(isoquinoline-4-sulfonyl)phenyl]methyl}thieno[2,3-c]pyridine-2-carboxamide]	3	0.7	6.7	0.8
O=C(NCc1ccc(S(=O)(=O)c2cccc3ccccc23)cc1)c1cnc2[nH]ncc2c1 [N-{[4-(naphthalene-1-sulfonyl)phenyl]methyl}-1H-pyrazolo[3,4-b]pyridine-5-carboxamide]	–	–	9.1	3.68
O=C(NCc1ccc(S(=O)(=O)c2cccc3ccccc23)cc1)c1cc2ccncc2o1 [N-{[4-(naphthalene-1-sulfonyl)phenyl]methyl}furo[2,3-c]pyridine-2-carboxamide]	–	–	4.9	3.1
O=C(NCc1ccc(S(=O)(=O)c2cccc3ccccc23)cc1)c1cnc2nccn2c1 [N-{[4-(naphthalene-1-sulfonyl)phenyl]methyl}imidazo[1,2-a]pyrimidine-6-carboxamide]	–	–	2.9	3.6
O=C(NCc1ccc(S(=O)(=O)c2cccc3ccccc23)cc1)c1cc2ccncc2s1 [N-{[4-(naphthalene-1-sulfonyl)phenyl]methyl}thieno[2,3-c]pyridine-2-carboxamide]	2	0.5	–	–
O=C(NCc1ccc(S(=O)(=O)c2cccc3c2Oc2ccccc2S3)cc1)c1cnc2[nH]ncc2c1 [N-{[4-(phenoxathiine-4-sulfonyl)phenyl]methyl}-1H-pyrazolo[3,4-b]pyridine-5-carboxamide]	–	–	14.8	20.4
O=C(NCc1ccc(S(=O)(=O)c2cccc3c2Oc2ccccc2S3)cc1)c1cc2cnccc2[nH]1 [N-{[4-(phenoxathiine-4-sulfonyl)phenyl]methyl}-1H-pyrrolo[3,2-c]pyridine-2-carboxamide]	5	0.9	–	–
O=C(NCc1ccc(S(=O)(=O)c2cccc3c2Oc2ccccc2S3)cc1)c1cc2ccncc2o1 [N-{[4-(phenoxathiine-4-sulfonyl)phenyl]methyl}furo[2,3-c]pyridine-2-carboxamide]	–	–	5.6	13.1
O=C(NCc1ccc(S(=O)(=O)c2cccc3c2Oc2ccccc2S3)cc1)c1ccc2nccn2c1 [N-{[4-(phenoxathiine-4-sulfonyl)phenyl]methyl}imidazo[1,2-a]pyridine-6-carboxamide]	–	–	2.15	2.18
O=C(NCc1ccc(S(=O)(=O)c2cccc3c2Oc2ccccc2S3)cc1)c1cnc2nccn2c1 [N-{[4-(phenoxathiine-4-sulfonyl)phenyl]methyl}imidazo[1,2-a]pyrimidine-6-carboxamide]	–	–	2.1	4.2
O=C(NCc1ccc(S(=O)(=O)c2cccc3c2Oc2ccccc2S3)cc1)c1cc2ccncc2s1 [N-{[4-(phenoxathiine-4-sulfonyl)phenyl]methyl}thieno[2,3-c]pyridine-2-carboxamide]	4	1.7	–	–
O=C(NCc1ccc(S(=O)(=O)Cc2ccccc2)cc1)c1cc2cnccc2[nH]1 [N-{[4-(phenylmethane)sulfonylphenyl]methyl}-1H-pyrrolo[3,2-c]pyridine-2-carboxamide]	29	302	–	–
O=C(NCc1ccc(S(=O)(=O)N2CCCCC2)cc1)c1ccc2ncsc2c1 [N-{[4-(piperidine-1-sulfonyl)phenyl]methyl}-1,3-benzothiazole-6-carboxamide]	9	10	–	–
O=C(NCc1ccc(S(=O)(=O)N2CCCCC2)cc1)c1ccc2cnccc2n1 [N-{[4-(piperidine-1-sulfonyl)phenyl]methyl}-1,6-naphthyridine-2-carboxamide]	12	10	–	–
O=C(NCc1ccc(S(=O)(=O)N2CCCCC2)cc1)c1ccc2nc[nH]c2c1 [N-{[4-(piperidine-1-sulfonyl)phenyl]methyl}-1H-1,3-benzodiazole-5-carboxamide]	21	10	–	–
